The target of one assay is GARFTase. As to conditions: read-out: reported Ki with GARFTase; in vitro assays; cited from earlier work.
Assay [1] deals with T1, human GARFTase (formyltransferase domain) (Homo sapiens, UniProt P22102).
T1 sequence (P22102 810-1010 limits assumed): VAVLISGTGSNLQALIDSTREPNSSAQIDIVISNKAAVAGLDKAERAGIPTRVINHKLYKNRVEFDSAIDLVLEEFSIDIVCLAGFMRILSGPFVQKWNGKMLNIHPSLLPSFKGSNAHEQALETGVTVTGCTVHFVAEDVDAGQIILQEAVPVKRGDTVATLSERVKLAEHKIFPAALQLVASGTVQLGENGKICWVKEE
Kind of assay: GAR transformylase. The class given is biochemical. As to conditions: ratio of Ki values.

What is called Ki is a measure of affinity in units of concentration, obtained from inhibition or displacement.

`Nc1nc(N)c(CCCC(C(=O)C(F)(F)F)c2ccc(C(=O)N[C@@H](CCC(=O)O)C(=O)O)cc2)c(=O)[nH]1` (some centres unmarked) [10-trifluoroacetyl antifolate, 10-(trifluoroacetyl)-5,10-dideazaacyclic-5,6,7,8-tetrahydrofolic acid]: the Ki on GARFTase is 15 nM.

Take `Nc1nc2[nH]c(CCCCCCCC(=O)N[C@@H](CCC(=O)O)C(=O)O)cc2c(=O)[nH]1` [AGF147]: the “fold weaker GARFTase inhibition than AGF94 and AGF145” value in assay [1] was “roughly 1.5 fold”.

Values taken from PMC5238714 (Biochemistry, 2016).
